Experimental data taken from ChEMBL document CHEMBL1201862, “PubChem BioAssay data set” (2004).
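Test compounds were applied to cells in 96-well plates for 48 hours at 5 doses. GI50: concentration for 50% inhibition of growth.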 Active and inactive are the calls of the source. Cut-off read from the data, not from the text of the source: active = GI50 up to about 1.1 µM and inactive = higher.

Key:
Assay in all cases: growth of human tumour cells (NCI), 48 h
OVCAR-4 = test system: OVCAR-4
KM12 = test system: KM12
M14 = test system: M14
U-251 = test system: U-251
SK-MEL-2 = test system: SK-MEL-2
SF-295 = test system: SF-295
HCT-116 = test system: HCT-116
LOX IMVI = test system: LOX IMVI
MDA-N = test system: MDA-N
MOLT-4 = test system: MOLT-4
SK-MEL-28 = test system: SK-MEL-28
Hs-578T = test system: Hs-578T
UO-31 = test system: UO-31
NCI-H522 = test system: NCI-H522
HCT-15 = test system: HCT-15
MCF7 = test system: MCF7
786-0 = test system: 786-0
RPMI-8226 = test system: RPMI-8226
EKVX = test system: EKVX
OVCAR-3 = test system: OVCAR-3

SMILES | GI50 (OVCAR-4) | GI50 (KM12) | GI50 (M14) | GI50 (U-251) | GI50 (SK-MEL-2) | GI50 (SF-295) | GI50 (HCT-116) | GI50 (LOX IMVI) | GI50 (MDA-N) | GI50 (MOLT-4) | GI50 (SK-MEL-28) | GI50 (Hs-578T) | GI50 (UO-31) | GI50 (NCI-H522) | GI50 (HCT-15) [µM] | GI50 (MCF7) | GI50 (786-0) | GI50 (RPMI-8226) | GI50 (EKVX) | GI50 (OVCAR-3)
CCN(CC)CC1CCCCN1CC(=O)N1c2ccccc2NC(=O)CC1C (stereo not given) | > 100 µM (inactive) | > 100 µM (inactive) | > 100 µM (inactive) | > 100 µM (inactive) | > 100 µM (inactive) | > 100 µM (inactive) | > 100 µM (inactive) | > 100 µM (inactive) | > 100 µM (inactive) | > 100 µM (inactive) | > 100 µM (inactive) | > 100 µM (inactive) | > 100 µM (inactive) | > 100 µM (inactive) | > 100 | > 100 µM (inactive) | > 100 µM (inactive) | > 100 µM (inactive) | > 100 µM (inactive) | > 100 µM (inactive)
COC(=O)CCC(C)[C@H]1CCC2C3C(C[C@H](OC(C)=O)[C@@]21C)[C@@]1(C)CCC2(C[C@H]1C[C@H]3OC(C)=O)OOC1(CCCCCCC1)OO2 (stereo not given in full) | 39 µM (inactive) | 4.88 µM (inactive) | 27.9 µM (inactive) | 5.86 µM (inactive) | > 100 µM (inactive) | 6.38 µM (inactive) | 2.74 µM (inactive) | 3.65 µM (inactive) | > 100 µM (inactive) | 3.12 µM (inactive) | > 100 µM (inactive) | 4.05 µM (inactive) | 7.26 µM (inactive) | 10.9 µM (inactive) | 5.52 | 6.64 µM (inactive) | 6 µM (inactive) | 1.67 µM (inactive) | 1.36 µM (inactive) | 2.73 µM (inactive)
CCCCCCCC/C=C(\Br)C(O)C(Br)Br (stereo not given) | 20.6 µM (inactive) | 19.1 µM (inactive) | 22.7 µM (inactive) | 30 µM (inactive) | 24.8 µM (inactive) | 18 µM (inactive) | 27.2 µM (inactive) | 19.9 µM (inactive) | 21.8 µM (inactive) | > 100 µM (inactive) | 29.2 µM (inactive) | 22.8 µM (inactive) | 19.4 µM (inactive) | 19.1 µM (inactive) | 20.6 | 25.5 µM (inactive) | 18.5 µM (inactive) | 42.7 µM (inactive) | 28.2 µM (inactive) | 17.4 µM (inactive)
